Source: patent US10753892B2, “Non-invasive sensing of free metal ions using ion chemical exchange saturation transfer” (The Johns Hopkins University, priority 2013, dated 2020)
Several values for one entry are separate records, joined by “and”; a condition that tells them apart may be missing. Identical values can stand only once. Entries after “also recorded” stand apart in the source; their conditions may differ. Marks after values point to notes of the source that are not given here. Values belong to the molecule of their own block, whether it stands above or below them.

Assays:
[1] = 19F-iCEST MRI of 5F-BAPTA with Zn2+ (16.4 T, 37° C.); assay type: binding; conditions: 10 mM 5F-BAPTA, 50 μM Zn2+, pH 7.2 and 6.4
Procedure: (§1) 5F-BAPTA was dissolved in Hepes buffer (40 mM) to a final concentration of 10 mM and the pH was adjusted to the following values: 5.6, 6.0, 6.4, 6.8, 7.0, 7.2, and 7.6. Stock 10 mM solutions of CaCl2, MgCl2, and ZnCl2 were prepared in 40 mM Hepes buffer. Five μL of the stock solution was added to 1 mL of 10 mM 5F-BAPTA resulting in a 200:1 ratio (10 mM: 50 μM) between the free 5F-BAPTA and the M^2+ ion following by a pH adjustment. One mL of each sample (with adjusted pH) was transferred into a 8 mm NMR tube within a 25 mm NMR tube in order to center the sample in the coil for the MRI experiments.
(§2) MRI experiments were performed on a vertical 16.4 T scanner (Bruker Avance system) at 37° C. A 25 mm birdcage radiofrequency coil was used to acquire both ^1H and ^19F MR images by sweeping the coil frequency from proton (700 MHz) to fluorine (658.8 MHz) frequency.
(§3) The saturation transfer effect on the free 5F-BAPTA, i.e., the MTR or iCEST, was calculated for each voxel in the image by using a Lorentzian line shape fitting as described in Jones et al. (Magn Reson Med 2012, 67, 1579), and Liu et al. (Molecular imaging 2012, 11, 47).
(§4) Saturation time (tsat) was either 1500 ms to 2000 ms as indicated in the text.

[2] = Relaxation times T1 and T2 of free 5F-BAPTA as a function of pH; assay type: physicochemical; conditions: free 5F-BAPTA 20 mM
Procedure: The same image geometry as in the ^19F-CEST experiments was used for the determination of T1 and T2 of the imaged samples. For T1 measurements, a saturation recovery experiment was performed with TR values of 61, 214, 395, 615, 899, 1296 1964, and 4961 ms. A spin-echo experiment (TR=5000 ms) with multiple echoes was performed with variable echo times (TE=5, 10 15, 20, 25, 30, 35, and 40 ms) to determine the T2 value of each sample.
Numerical solutions to the six Bloch equations including direct saturation of free 5F-BAPTA were obtained as described previously (McMahon, M. T. et al., Magnetic Resonance in Medicine 2006, 55, 836). The relaxation parameters for ^19F used in the Bloch equations were R1=1/T1 with bound calcium (Rib)=0.71 s^−1, R2 bound calcium (R2b)=29 s^−1, whereas the R1 and R2 values of free 5F-BAPTA (R1f and R2f) were determined experimentally through inversion-recovery and saturation-recovery experiments as a function of pH on solutions containing 20 mM 5F-BAPTA as listed in Table 1 as follows: […]

[3] = as above; assay type: physicochemical; conditions: pH 5.6, estimated from the Bloch equation fitting
[4] = 19F-iCEST MRI of 5F-BAPTA with Mg2+ (16.4 T, 37° C.); assay type: binding
Procedure: as §1, §2, §3, §4

[5] = 19F-CEST experiments with 5F-BAPTA at pH 7.0 (11.7 T NMR, 16.4 T MRI); assay type: binding; conditions: 10 mM 5F-BAPTA, 100 μM M2+, saturation at Δω=5.8 ppm
Procedure: ^19F-CEST experiments were performed on solutions containing 1,2-Bis-[2-bis(carboxymethyl)amino-5-fluorophenoxy]ethane (5F-BAPTA), with and without divalent cations (M^2+).
Experiments were performed on an 11.7T NMR spectrometer (Bruker). 5F-BAPTA (AnaSpec, Inc.) was dissolved in 40 mM HEPES buffer (pH=7.0) to a concentration of 5 mM, and CaCl2 was dissolved to a final Ca^2+ concentration of 50 μm.
^19F-CEST spectra (z-spectra) were acquired with a saturation transfer sequence consisting of a saturation pulse (B1=4.7 μT, 4 sec) with variable offset (from −7.5 to +7.5 ppm relative to the 5FBAPTA frequency set at 0 ppm). Experiments were performed without (room temperature, RT) and with sample heating (37° C.). The MTRasym=100×(S−Δω−S+Δω)/S0 was computed at different offsets Δω, where S0 is the 5F-BAPTA signal without saturation.
Imaging experiments were performed on a 16.4T MRI scanner (Bruker). 5F-BAPTA was dissolved to 10 mM in 40 mM HEPES, pH=7.0, with or without 100 μM of M^2+ (Mg^2+, Zn^2+, or Ca^2+).
^19F-CEST images were acquired using a continuous wave presaturation pulse (B1=3.6 μT, 3 sec) followed by a multi-echo MRI pulse sequence (RARE, rare factor 4, TR/TE=6000/10 ms). FOV of 4×4 cm, matrix 32×32 and slice thickness 10 mm. Mean ^19F-CEST spectra were derived after B0 correction for each voxel using MatLab. MTRasym plots and maps were calculated.

[6] = 19F-iCEST MRI of 5F-BAPTA with Ca2+ (16.4 T, 37° C.), Bloch simulations; assay type: binding
Procedure: as §1, §2, §3
Numerical solutions to the six Bloch equations including direct saturation of free 5F-BAPTA were obtained as described previously (McMahon, M. T. et al., Magnetic Resonance in Medicine 2006, 55, 836). The relaxation parameters for ^19F used in the Bloch equations were R1=1/T1 with bound calcium (Rib)=0.71 s^−1, R2 bound calcium (R2b)=29 s^−1, whereas the R1 and R2 values of free 5F-BAPTA (R1f and R2f) were determined experimentally through inversion-recovery and saturation-recovery experiments as a function of pH on solutions containing 20 mM 5F-BAPTA as listed in Table 1 as follows:
as §4
An aqueous solution containing 0.5 mM of 5F-BAPTA and 500 nM in Hepes buffer (40 mM, pH=7.2) was transferred into a 20 mm NMR tube, which was located within a 25 mm NMR tube in order to centralize the sample in the coil for the MRI experiment. The same parameters used for ^19F-iCEST experiments were used except the followings: TR=3000 ms, RARE=8, FOV=6.0 cm (resolution=1.875×1.875 mm), and 168 averages.

[7] = cited from earlier work
[8] = Bloch simulations, two pool model
Procedure: (§5) Experiments were performed on solutions containing TF-BAPTA and multiple biologically relevant metal ions (K^+, Na^+, Ca^2+, Mg^2+, Cu^2+, Fe^2+ and Zn^2+) at 37° C. and pH=7.4. MR Spectroscopy as follows: TF-BAPTA was dissolved to a final concentration of 5 mM, and ions were add at 500 μM. Using 5-Fluorocytosine (5-FC) as an internal ^19F reference, ^19F-NMR spectra were acquired (11.7 T NMR spectrometer, Bruker). MRI: Experiments were performed on a 17.6 T MRI scanner (Bruker). TF-BAPTA was dissolved to 10 mM with 200″ AM of ion. A RARE (factor 8) sequence was used to acquire 1H MRI (TR/TE=5,000/7.7 ms, 1 mm slice, FOV=2×2 cm, matrix size=128×128). For ^19F MRI, the center frequency (O1) was set at the frequency of the 19F atom at the 6 position (0.0 ppm) of TF-BAPTA (FIG. 1a), while signal from the ^19F located at the 5 position of TF-BAPTA (FIG. 1a-b, 4.5 ppm downfield) was suppressed. A modified RARE sequence (TR/TE=4,000/3.4 ms, RARE factor=16, 6 mm slice, FOV=2×2 cm, matrix size=32×32, and a saturation pulse B1=1.2, 2.4 or 3.6 ItT/2 s) were used to acquire ^19F iCEST. Mean ^19F Z-spectra (iCEST spectra), were obtained after B0 correction. CEST contrasts, i.e., the magnetization transfer ratio (MTR) images were calculated after Lorentzian line shape fitting.

[9] = Bloch simulations, two pool model; remark: listed apart in the source
Procedure: as §5

[10] = London et al., 1994; cited from earlier work

T1 ([2]; pH 5.6): 715 ms | T1 ([2]; pH 6.0): 715 ms | T2 ([2]; pH 6.0): 10 ms | T1 ([2]; pH 6.4): 715 ms | T2 ([2]; pH 6.4): 11 ms | T1 ([2]; pH 6.8): 715 ms | T2 ([2]; pH 6.8): 25 ms | T1 ([2]; pH 7.0): 715 ms | T2 ([2]; pH 7.0): 32 ms | T1 ([2]; pH 7.2): 715 ms | T2 ([2]; pH 7.2): 38 ms | T1 ([2]; pH 7.6): 715 ms | T2 (ms) [3]: 6^a ms
SMILES: O=C(O)CN(CC(=O)O)c1ccc(F)cc1OCCOc1cc(F)ccc1N(CC(=O)O)CC(=O)O [5F-BAPTA, 2,2′,2″,2′″-(2,2′-(Ethane-1,2-diylbis(oxy))bis(4-fluoro-2,1-phenylene))bis(azanetriyl)tetraacetic acid]
iCEST contrast, Zn2+ containing sample [1]: did not generate iCEST contrast | iCEST contrast, Mg2+ containing sample ([4]; 10 mM 5F-BAPTA, 50 μM Mg2+, pH 7.2 and 6.4): did not generate iCEST contrast | amplification factor for Mg2+ ([4]; iCEST, FIG. 10b): 10 | 19F-CEST MRI contrast among tubes with no M2+, Mg2+, Zn2+ or Ca2+ [5]: only the Ca^2+ containing solution generated contrast | Ca2+ concentration detected by iCEST ([6]; 0.5 mM 5F-BAPTA, pH 7.2): 500 nM | iCEST (saturation transfer) contrast, Ca2+ containing sample ([6]; 10 mM 5F-BAPTA, 50 μM Ca2+, pH 7.2 and 6.4, B1=3.6 μT/2000 ms): pronounced saturation transfer contrast was detected; also recorded: large iCEST contrast was detected | kex between [Ca-5F-BAPTA] and 5F-BAPTA ([6]; Bloch simulations, all examined pH values): 190 s⁻¹ and 190 ± 10 s⁻¹ | Ca2+ specificity in a Zn2+ background ([6]; iCEST, FIGS. 13a-c): high Ca^2+ specificity | Ca2+ specificity in a Mg2+ background ([6]; iCEST, FIGS. 14a-c): high Ca^2+ specificity | amplification factor for Ca2+ ([6]; iCEST, kex 190 s−1): ~100 | iCEST contrast in the Z-spectrum ([6]; χCa=1:1000, 5 mM 5F-BAPTA, pH 7.2): ~11%

SMILES: O=C(O)CN(CC(=O)O)c1ccccc1OCCOc1ccccc1N(CC(=O)O)CC(=O)O [BAPTA, 1,2-bis(o-aminophenoxy)ethane-N,N,N′,N′-tetraacetic acid]
selectivity for Ca2+ over Mg2+ [7]: > 10^5 | iCEST contrast produced by Ca2+ in mixtures ([6]; 50 μM Ca2+ with 200 μM Mg2+ or 50 μM Zn2+, 10 mM chelate, pH 7.2, Δω=6 ppm): ~22%

SMILES: O=C(O)CN(CC(=O)O)c1cc(F)c(F)cc1OCCOc1cc(F)c(F)cc1N(CC(=O)O)CC(=O)O [TF-BAPTA, 5,5′, 6,6′-tetrafluoro-BAPTA]
exchange rate (kex) between free and Fe2+-bound TF-BAPTA [8]: ~20 s⁻¹ | exchange rate (kex) between free and Zn2+-bound TF-BAPTA [9]: ~20 s⁻¹ | exchange rate of Ca2+ with TF-BAPTA [10]: ~30,000 s−1
